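Each compound was tested at five concentrations against cells in 96-well plates for 48 hours. Abbreviation: GI50, concentration required for 50% inhibition of growth. TGI: concentration producing complete growth inhibition.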
Legend:
Test in all cases: growth of human tumour cells (NCI), 48 h
ACHN renal = system: ACHN renal
CAKI-1 renal = system: CAKI-1 renal
NCI/ADR-RES ovarian = system: NCI/ADR-RES ovarian
OVCAR-3 ovarian = system: OVCAR-3 ovarian
OVCAR-5 ovarian = system: OVCAR-5 ovarian
SF-268 CNS = system: SF-268 CNS
SK-MEL-28 melanoma = system: SK-MEL-28 melanoma
SR leukemia = system: SR leukemia
T-47D breast = system: T-47D breast
UACC-257 melanoma = system: UACC-257 melanoma

Structure (SMILES)	GI50 (ACHN renal) [µM]	TGI (ACHN renal) [µM]	GI50 (CAKI-1 renal) [µM]	TGI (CAKI-1 renal) [µM]	GI50 (NCI/ADR-RES ovarian) [µM]	TGI (NCI/ADR-RES ovarian) [µM]	GI50 (OVCAR-3 ovarian) [µM]	TGI (OVCAR-3 ovarian) [µM]	GI50 (OVCAR-5 ovarian) [µM]	TGI (OVCAR-5 ovarian) [µM]	GI50 (SF-268 CNS) [µM]	TGI (SF-268 CNS) [µM]	GI50 (SK-MEL-28 melanoma) [µM]	TGI (SK-MEL-28 melanoma) [µM]	GI50 (SR leukemia) [µM]	TGI (SR leukemia) [µM]	GI50 (T-47D breast) [µM]	TGI (T-47D breast) [µM]	GI50 (UACC-257 melanoma) [µM]	TGI (UACC-257 melanoma) [µM]
CC(=O)OC1CCC2(C)C(CCC3C2CCC2(C)C(C4=CC(=O)OC4)CCC32)C1 (stereo unspecified)	12.3	38.9	11.2	33.1	8.37	42.7	20.6	86	11.5	55.8	2.38	10.1	4.75	22	0.468	10.9	13.1	45.5	–	–
Cn1cc(-c2csc(-c3cn(CCN4CCOCC4)c4ccc(F)cc34)n2)c2cccnc21	2.82	12.9	–	–	2.36	8.15	2.71	9.27	4.59	> 100	2.82	> 100	3.01	12.3	2.29	6.9	1.52	4.73	4.54	28.9
COc1cc(/C=C/C(=O)c2c(C)n([O-])c3cc(C)c(C)cc3[n+]2=O)cc(OC)c1OC	13.9	27.9	10.8	29.6	23	56.6	16.8	41.6	17.6	47.1	12.5	32.3	19	46.7	13.4	> 100	20.5	73.7	16.7	48.8
Cc1cc(-c2ccccc2)c(C)n1Cc1ccc(Cl)cc1	4.99	> 100	3.66	> 100	3.64	66.3	3.54	23.5	12.3	> 100	13.6	> 100	6.18	> 100	0.592	26.7	5.26	> 100	5.39	78.6
NC(=O)Nc1ccc2ncnc(Nc3ccc(Cl)cc3)c2c1	1.49	45.3	1.6	42.2	18.3	> 81.5	10.4	> 83.4	15.8	> 95	21.7	> 100	30.2	> 100	21.3	75.8	10.2	> 85.1	22	66
CC1OC(OC2C(OC3C[C@@]4(C)C(C[C@H](O)[C@H]5[C@H](C6(C)CCC(C(C)(C)O)O6)CCC54C)[C@]4(C)CC[C@@H](O)C(C)(C)C34)OC(CO)C(O)C2O)C(O)C(O)C1O (stereo partly specified) (tested in a mixture with another compound)	–	> 100	–	> 100	–	–	–	> 100	–	> 100	–	> 100	–	> 100	–	> 100	–	> 100	–	> 100
O=C(c1ccc(O)cc1)c1ccc(C(=O)c2ccc(O)cc2)cc1	> 100	> 100	–	–	–	–	> 100	> 100	> 100	> 100	26.6	> 100	> 100	> 100	> 100	> 100	4.69	> 100	> 100	> 100

Reference: PubChem BioAssay (NCI)
